Measurements published in paper PMC5376172, “Identification and use of an alkane transporter plug-in for applications in biocatalysis and whole-cell biosensing of alkanes” (Scientific Reports, 2014).

Key:
[1] = biological target: T1, AlkL (Ectopseudomonas oleovorans, UniProt Q00595); experiment: whole-cell alkane uptake by GC and coupled AlkB oxidation, with and without alkL; type: cell-based; details: transport into E. coli; 15 min incubation for direct uptake; whole cells
T1 construct: full-length, untagged, from pSTBFGL (palkB promoter) in E. coli DH1 / HB101 with AlkBFGT
T1 sequence (Q00595 28-230): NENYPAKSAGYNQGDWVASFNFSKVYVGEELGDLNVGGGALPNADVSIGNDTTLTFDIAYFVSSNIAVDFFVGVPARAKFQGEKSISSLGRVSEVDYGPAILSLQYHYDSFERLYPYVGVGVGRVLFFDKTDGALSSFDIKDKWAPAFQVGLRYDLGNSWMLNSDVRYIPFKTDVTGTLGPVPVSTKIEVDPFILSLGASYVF

[2] = biological target: T2, alkane hydroxylase complex (AlkB, AlkG, AlkT) (Ectopseudomonas oleovorans, UniProt P12691); experiment: whole-cell bio-oxidation, GC-FID of products; type: cell-based; details: E. coli DH1 / HB101 whole cells; DCPK inducer
T2 construct: integral membrane AlkB with electron transfer partners, co-expressed from pSTBFG(L) in whole E. coli cells; alkF also on plasmid; with Rubredoxin-2; Rubredoxin-NAD(+) reductase
T2 sequence (P12691 1-401): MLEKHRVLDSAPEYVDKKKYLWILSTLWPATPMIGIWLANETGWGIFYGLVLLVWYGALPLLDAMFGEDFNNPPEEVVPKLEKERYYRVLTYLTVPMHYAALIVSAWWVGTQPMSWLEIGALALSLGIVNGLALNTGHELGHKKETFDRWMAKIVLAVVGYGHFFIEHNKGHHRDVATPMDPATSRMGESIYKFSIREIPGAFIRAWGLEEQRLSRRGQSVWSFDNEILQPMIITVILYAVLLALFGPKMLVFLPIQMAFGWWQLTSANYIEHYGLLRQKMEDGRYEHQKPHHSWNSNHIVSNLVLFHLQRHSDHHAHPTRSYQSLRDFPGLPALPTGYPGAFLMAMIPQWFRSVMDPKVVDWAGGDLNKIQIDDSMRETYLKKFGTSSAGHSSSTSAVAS
T2 sequence (P00272 2-173 partner): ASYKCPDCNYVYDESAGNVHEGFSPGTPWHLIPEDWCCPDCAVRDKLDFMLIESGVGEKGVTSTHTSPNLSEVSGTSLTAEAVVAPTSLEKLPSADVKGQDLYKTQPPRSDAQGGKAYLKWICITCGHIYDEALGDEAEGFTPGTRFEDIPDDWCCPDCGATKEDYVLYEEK

CCCCCCCCCCCC [n-dodecane]
whole-cell alkane uptake by GC and coupled AlkB oxidation, with and without alkL [1]: E.coli strains expressing alkL were also tested for a direct measurement of n-dodecane uptake

CCCCCCCC [n-octane]
whole-cell bio-oxidation, GC-FID of products [2]: Oxidised products of n-octane were detected in all host cells containing either pSTBFG or pSTBFGL
